The text below walks through data of ChEMBL document CHEMBL1125022, “Chiral modifications of dolastatin 10: the potent cytostatic peptide (19aR)-isodolastatin 10” (1990).

In brackets after ≈: the same amount, converted by molar mass.

The experiment concerns P388. The experiment is described as follows: Effect against cell growth of the P388 lymphocytic leukemia (PS system). It counts as functional. The note with it: Mus musculus, read-out: ED50 (the source's name).

Turning to `CCC(C)[C@H]([C@H](CC(=O)N1CCC[C@H]1[C@H](OC)[C@@H](C)C(=O)N[C@@H](Cc1ccccc1)c1nccs1)OC)N(C)C(=O)[C@@H](NC(=O)[C@H](C(C)C)N(C)C)C(C)C` (some centres undefined), the EC50 stood at 3.2 ng/mL (≈ 4.08 nM). Next, `CC[C@@H](C)[C@H]([C@H](CC(=O)N1CCC[C@H]1[C@@H](OC)[C@H](C)C(=O)N[C@@H](Cc1ccccc1)c1nccs1)OC)N(C)C(=O)[C@@H](NC(=O)[C@H](C(C)C)N(C)C)C(C)C`: 630 ng/mL (≈ 802 nM); `CC[C@@H](C)[C@@H]([C@H](CC(=O)N1CCC[C@H]1[C@@H](OC)[C@H](C)C(=O)N[C@@H](Cc1ccccc1)c1nccs1)OC)N(C)C(=O)[C@@H](NC(=O)[C@H](C(C)C)N(C)C)C(C)C`: above 1000 ng/mL. Take `CC[C@@H](C)[C@@H]([C@H](CC(=O)N1CCC[C@H]1[C@H](OC)[C@H](C)C(=O)N[C@@H](Cc1ccccc1)c1nccs1)OC)N(C)C(=O)[C@@H](NC(=O)[C@H](C(C)C)N(C)C)C(C)C`: the EC50 is 410 ng/mL (≈ 522 nM). Next, `CCC(C)[C@H]([C@H](CC(=O)N1CCC[C@H]1[C@H](OC)[C@H](C)C(=O)N[C@@H](Cc1ccccc1)c1nccs1)OC)N(C)C(=O)[C@@H](NC(=O)[C@H](C(C)C)N(C)C)C(C)C` (some centres undefined): 270 ng/mL (≈ 344 nM); `CCC(C)[C@@H]([C@H](CC(=O)N1CCC[C@H]1[C@H](OC)[C@H](C)C(=O)N[C@@H](Cc1ccccc1)c1nccs1)OC)N(C)C(=O)[C@@H](NC(=O)[C@H](C(C)C)N(C)C)C(C)C` (some centres undefined): 620 ng/mL (≈ 790 nM); `CC[C@@H](C)[C@H]([C@@H](CC(=O)N1CCC[C@H]1[C@H](OC)[C@H](C)C(=O)N[C@@H](Cc1ccccc1)c1nccs1)OC)N(C)C(=O)[C@@H](NC(=O)[C@H](C(C)C)N(C)C)C(C)C`: above 1000 ng/mL. Regarding `CC[C@@H](C)[C@H]([C@H](CC(=O)N1CCC[C@H]1[C@@H](OC)[C@@H](C)C(=O)N[C@@H](Cc1ccccc1)c1nccs1)OC)N(C)C(=O)[C@@H](NC(=O)[C@H](C(C)C)N(C)C)C(C)C`, the EC50 is 200 ng/mL (≈ 255 nM).

For `CC[C@@H](C)[C@@H]([C@@H](CC(=O)N1CCC[C@H]1[C@H](OC)[C@@H](C)C(=O)N[C@@H](Cc1ccccc1)c1nccs1)OC)N(C)C(=O)[C@@H](NC(=O)[C@H](C(C)C)N(C)C)C(C)C`, the EC50 came out at 0.049 ng/mL (≈ 0.0624 nM).

Consider `CC[C@@H](C)[C@@H]([C@H](CC(=O)N1CCC[C@H]1[C@H](OC)[C@@H](C)C(=O)N[C@@H](Cc1ccccc1)c1nccs1)OC)N(C)C(=O)[C@@H](NC(=O)[C@H](C(C)C)N(C)C)C(C)C`, for which the EC50 amounted to 600 ng/mL (≈ 764 nM). Consider `CC[C@@H](C)[C@H]([C@H](CC(=O)N1CCC[C@H]1[C@H](OC)[C@H](C)C(=O)N[C@@H](Cc1ccccc1)c1nccs1)OC)N(C)C(=O)[C@@H](NC(=O)[C@H](C(C)C)N(C)C)C(C)C`, for which the EC50 is 150 ng/mL (≈ 191 nM). Turning to `CC[C@@H](C)[C@@H]([C@@H](CC(=O)N1CCC[C@H]1[C@@H](OC)[C@@H](C)C(=O)N[C@@H](Cc1ccccc1)c1nccs1)OC)N(C)C(=O)[C@@H](NC(=O)[C@H](C(C)C)N(C)C)C(C)C`, the EC50 stood at 3.9 ng/mL (≈ 4.97 nM).

In the case of `CC[C@@H](C)[C@@H]([C@@H](CC(=O)N1CCC[C@H]1[C@H](OC)[C@H](C)C(=O)N[C@@H](Cc1ccccc1)c1nccs1)OC)N(C)C(=O)[C@@H](NC(=O)[C@H](C(C)C)N(C)C)C(C)C`, the EC50 was 5.6 ng/mL (≈ 7.13 nM). Take `CC[C@@H](C)[C@H]([C@@H](CC(=O)N1CCC[C@H]1[C@@H](OC)[C@H](C)C(=O)N[C@@H](Cc1ccccc1)c1nccs1)OC)N(C)C(=O)[C@@H](NC(=O)[C@H](C(C)C)N(C)C)C(C)C`: the EC50 is above 1000 ng/mL.

Regarding `CCC(C)[C@H]([C@@H](CC(=O)N1CCC[C@H]1[C@H](OC)[C@H](C)C(=O)N[C@@H](Cc1ccccc1)c1nccs1)OC)N(C)C(=O)[C@@H](NC(=O)[C@H](C(C)C)N(C)C)C(C)C` (some centres undefined), the EC50 is above 1000 ng/mL.

With `CC[C@@H](C)[C@@H]([C@@H](CC(=O)N1CCC[C@H]1[C@@H](OC)[C@H](C)C(=O)N[C@@H](Cc1ccccc1)c1nccs1)OC)N(C)C(=O)[C@@H](NC(=O)[C@H](C(C)C)N(C)C)C(C)C`, the EC50 stood at 39 ng/mL (≈ 49.7 nM). For `CC[C@@H](C)[C@H]([C@H](CC(=O)N1CCC[C@H]1[C@H](OC)[C@@H](C)C(=O)N[C@@H](Cc1ccccc1)c1nccs1)OC)N(C)C(=O)[C@@H](NC(=O)[C@H](C(C)C)N(C)C)C(C)C`, the EC50 came out at 3.2 ng/mL (≈ 4.08 nM). Consider `CCC(C)[C@@H]([C@@H](CC(=O)N1CCC[C@H]1[C@H](OC)[C@H](C)C(=O)N[C@@H](Cc1ccccc1)c1nccs1)OC)N(C)C(=O)[C@@H](NC(=O)[C@H](C(C)C)N(C)C)C(C)C` (some centres undefined), for which the EC50 worked out at 1.6 ng/mL (≈ 2.04 nM). Take `CC[C@H](C)[C@@H]([C@@H](CC(=O)N1CCC[C@H]1[C@H](OC)[C@@H](C)C(=O)N[C@@H](Cc1ccccc1)c1nccs1)OC)N(C)C(=O)[C@@H](NC(=O)[C@H](C(C)C)N(C)C)C(C)C` [DOLASTATIN-10]: the EC50 was 1 ng/mL (≈ 1.27 nM).
